In patent publication US7595397B2, “Compounds which modulate the CB2 receptor” (Boehringer Ingelheim International GmbH, priority 2005, dated 2009) one finds agonistic activity data, which are given here for 23 molecules.

T1 sequence (P34972 whole entry): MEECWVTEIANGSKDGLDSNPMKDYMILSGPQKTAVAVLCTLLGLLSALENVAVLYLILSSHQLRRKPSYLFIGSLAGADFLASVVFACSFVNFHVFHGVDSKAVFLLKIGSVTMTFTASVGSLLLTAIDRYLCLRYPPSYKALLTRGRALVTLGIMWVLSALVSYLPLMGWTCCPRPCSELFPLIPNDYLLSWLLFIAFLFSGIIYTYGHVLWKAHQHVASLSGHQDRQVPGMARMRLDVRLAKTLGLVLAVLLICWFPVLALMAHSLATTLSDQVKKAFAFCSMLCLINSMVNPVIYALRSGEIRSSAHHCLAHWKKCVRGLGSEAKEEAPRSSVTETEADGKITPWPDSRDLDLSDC

This assay has as its target T1, human CB2R (Homo sapiens, UniProt P34972).
T1 construct: host or cells: CHO cells
Nature of the assay: CB2R mediated modulation of cAMP synthesis. Particulars: CHO cells expressing human CB2R; decrease of forskolin induced cAMP; found 'through the use of the above described assays'. The assay is classed as cell-based. How it is done:
B. CB2R Mediated Modulation of cAMP Synthesis:
CHO cells expressing human CB2R (Euroscreen) were plated at a density of 5000 cells per well in 384 well plates and incubated overnight at 37° C. After removing the media, the cells were treated with test compounds diluted in stimulation buffer containing 1 mM IBMX, 0.25% BSA and 10 uM Forskolin. The assay was incubated for 30 minutes at 37° C. Cells were lysed and the cAMP concentration was measured using DiscoverX-XS cAMP kit, following the manufacturer's protocol. In this setting, agonists will decrease forskolin induced production of cAMP while inverse agonists will further increase forskolin induced production of cAMP. EC50 of agonists were calculated as follows. The maximal amount of cAMP produced by forskolin compared to the level of cAMP inhibited by 1 uM CP55940 is defined as 100%. The EC50 value of each test compound was determined as the concentration at which 50% of the forskolin-stimulated cAMP synthesis was inhibited. Data was analyzed using a four-parameter logistic model. (Model 205 of XLfit 4.0).
Consider `Clc1ccccc1-c1ccc(CN2CCCC(c3ccccc3)C2)cc1` (centres unmarked) [1-(2′-Chloro-biphenyl-4-ylmethyl)-3-phenyl-piperidine], for which the agonistic activity entry is recorded as “agonistic activity”.

`O=S(=O)(c1ccccc1)N1CCN(Cc2ccc(-c3ccccc3C(F)(F)F)cc2)CC1c1ccccc1` (centres unmarked) [1-Benzenesulfonyl-2-phenyl-4-(2′-trifluoromethyl-biphenyl-4-ylmethyl)-piperazine]: the agonistic activity entry was “agonistic activity”.

In the case of `FC(F)(F)c1ccccc1-c1ccc(CN2CCOC(c3ccccc3)C2)cc1` (centres unmarked) [2-Phenyl-4-(2′-trifluoromethyl-biphenyl-4-ylmethyl)-morpholine], the agonistic activity entry was “agonistic activity”.

With `c1ccc(C2CN(Cc3ccc(-c4ccccn4)cc3)CCO2)cc1` (centres unmarked) [2-Phenyl-4-(4-pyridin-2-yl-benzyl)-morpholine], the agonistic activity entry is reported as “agonistic activity”.

Take `c1ccc(C2CN(Cc3ccc(-c4ccsc4)cc3)CCO2)cc1` (centres unmarked) [2-Phenyl-4-(4-thiophen-3-yl-benzyl)-morpholine]: the agonistic activity entry is “agonistic activity”.

Take `FC(F)(F)c1ccccc1-c1ccc(CN2CCNC(Cc3ccccc3)C2)cc1` (centres unmarked) [3-Benzyl-1-(2′-trifluoromethyl-biphenyl-4-ylmethyl)-piperazine]: the agonistic activity result is on record as “agonistic activity”.

Turning to `FC(F)(F)c1ccccc1-c1ccc(CN2CCCC(c3ccccc3)C2)cc1` (centres unmarked) [3-Phenyl-1-(2′-trifluoromethyl-biphenyl-4-ylmethyl)-piperidine], the agonistic activity entry is given as “agonistic activity”.

For the molecule `Clc1cccc(-c2ccc(CN3CCOC(c4ccccc4)C3)cc2)c1Cl` (centres unmarked) [4-(2′,3′-Dichloro-biphenyl-4-ylmethyl)-2-phenyl-morpholine], the agonistic activity result is given as “agonistic activity”.

As for `Cc1ccc(Cl)c(-c2ccc(CN3CCOC(c4ccccc4)C3)cc2)c1` (centres unmarked) [4-(2′-Chloro-5′-methyl-biphenyl-4-ylmethyl)-2-phenyl-morpholine], the agonistic activity entry is on record as “agonistic activity”.

As for `Clc1ccccc1-c1ccc(CN2CCOC(c3ccccc3)C2)cc1` (centres unmarked) [4-(2′-Chloro-biphenyl-4-ylmethyl)-2-phenyl-morpholine], the agonistic activity result is recorded as “agonistic activity”.

In the case of `CCOc1ccccc1-c1ccc(CN2CCOC(c3ccccc3)C2)cc1` (centres unmarked) [4-(2′-Ethoxy-biphenyl-4-ylmethyl)-2-phenyl-morpholine], the agonistic activity entry is given as “agonistic activity”.

In the case of `FC(F)(F)c1ccccc1-c1ccc(CN2CCOCC2)cc1` [4-(2′-Trifluoromethyl-biphenyl-4-ylmethyl)-morpholine], the agonistic activity entry is “agonistic activity”.

With `Clc1sccc1-c1ccc(CN2CCOC(c3ccccc3)C2)cc1` (centres unmarked) [4-[4-(2-Chloro-thiophen-3-yl)-benzyl]-2-phenyl-morpholine], the agonistic activity entry is reported as “agonistic activity”.

In the case of `N#Cc1ccccc1-c1ccc(CN2CCOC(c3ccccc3)C2)cc1` (centres unmarked) [4′-(2-Phenyl-morpholin-4-ylmethyl)-biphenyl-2-carbonitrile], the agonistic activity result is “agonistic activity”.

Take `FC(F)(F)c1ccccc1-c1ccc(CN2CCO[C@@H](c3ccccc3)C2)cn1` [(S)-2-Phenyl-4-[6-(2-trifluoromethyl-phenyl)-pyridin-3-ylmethyl]-morpholine]: the agonistic activity entry is recorded as “agonistic activity”.

`Clc1cccc(-c2ccc(CN3CCO[C@@H](c4ccccc4)C3)cc2)c1Cl` [Example 183, (S)-4-(2′,3′-Dichloro-biphenyl-4-ylmethyl)-2-phenyl-morpholine]: the agonistic activity entry is “agonistic activity”.

With `c1ccc(C[C@H]2CN(Cc3ccc(-c4ccccc4)nc3)CCN2)cc1` [Example 186, (S)-3-Benzyl-1-(6-phenyl-pyridin-3-ylmethyl)-piperazine], the agonistic activity entry was “agonistic activity”.

In the case of `c1ccc(-c2ccc(CN3CCO[C@@H](c4ccccc4)C3)cn2)cc1` [Example 188, (S)-2-Phenyl-4-(6-phenyl-pyridin-3-ylmethyl)-morpholine], the agonistic activity result is on record as “agonistic activity”.

Regarding `Clc1cccc(-c2ccc(CN3CCO[C@@H](c4ccccc4)C3)cn2)c1` [Example 189, (S)-4-[6-(3-Chloro-phenyl)-pyridin-3-ylmethyl]-2-phenyl-morpholine], the agonistic activity result is “agonistic activity”.

Take `Clc1sccc1-c1ccc(CN2CCO[C@@H](c3ccccc3)C2)cc1` [Example 191, (S)-4-[4-(2-Chloro-thiophen-3-yl)-benzyl]-2-phenyl-morpholine]: the agonistic activity result is “agonistic activity”.

As to `N#Cc1ccccc1-c1ccc(CN2CCO[C@@H](c3ccccc3)C2)cc1` [Example 192, 4′-((S)-2-Phenyl-morpholin-4-ylmethyl)-biphenyl-2-carbonitrile], the agonistic activity entry is “agonistic activity”.

As to `Clc1ccccc1-c1ccc(CN2CCO[C@@H](c3ccccc3)C2)cc1` [Example 193, (S)-4-(2′-Chloro-biphenyl-4-ylmethyl)-2-phenyl-morpholine], the agonistic activity result is reported as “agonistic activity”.

In the case of `O=C(c1ccccc1)N1CCN(Cc2ccc(-c3ccccc3C(F)(F)F)cc2)CC1Cc1ccccc1` (centres unmarked) [Phenyl-[2-benzyl-4-(2′-trifluoromethyl-biphenyl-4-ylmethyl)-piperazin-1-yl]-methanone], the agonistic activity result is “agonistic activity”.
